Converted amounts (≈) assume the structure as drawn. “And” between values parts separate entries of the source, which are not always exact repeats. Equal values may be shown once. “Also recorded” adds a separate entry of the source.
Tests used:
Type in all cases: cell-based
[1] = test system: Escherichia coli (ATCC 8739); experiment: Minimal Inhibitory Concentration (MIC) on Escherichia coli with or without PMBN, OD600 after O/N growth; settings: for MIC: molecule alone
Description: The Minimal Inhibitory Concentration (MIC) of molecules 2329, 2412, 2452 and 2461 together with polymyxin B nonapeptide (PMBN) was determined on Escherichia coli (ATCC 8739) according to EUCAST (European Committee on Antimicrobial Susceptibility Testing) recommendations.
(§1) Briefly, a single colony grown on a Luria-Bertani Agar (LB) plate was resuspended and cultured in the LB medium overnight (O/N) in aerobic conditions (37° C. with 220 rpm shaking), next day a 1:50 inoculum in Mueller-Hinton broth (MHB) was incubated in aerobic conditions for 1h30 (OD=0.08-0.1) and an inoculum of 1:300 dilution, corresponding to 3×10^6 CFU/ml, was incubated in presence or absence of different concentrations of the molecules in 1% DMSO (vehicle) with or without Polymyxin B nonapeptide (PMBN) at 40 μg/ml. After O/N growth the OD of each culture was measured at 600 nm in a spectrophotometer (OD600). The MIC represents the concentration at which there is no visible growth of bacteria, i.e. ΔOD at 600 nm equal to zero wherein ΔOD is the difference between the resulting optical density (OD) with the molecule together with PMBN, and the optical density (OD) of the blank (blank is the medium) alone.
(§2) A single colony grown on an Lurian-Bertani (LB) agar plate is resuspended and cultured in LB medium overnight (O/N) in aerobic conditions (37° C. with 220 rpm shaking), next day a 1:50 inoculum in Mueller-Hinton broth (MHB) is incubated in aerobic conditions for 1h30 (OD=0.08-0.1) and an inoculum of 1:300 dilution, corresponding to 3×10^6 CFU/ml, is incubated in presence or absence of different concentrations of the tested molecules in 1% DMSO (vehicle) with or without PMBN at 40 μg/ml. After O/N growth the OD of each culture was measured at 600 nm (OD600) in a spectrophotometer (Victor 3-Perkin Elmer). The MIC represents the concentration at which there is no visible growth of bacteria, i.e. ΔOD at 600 nm equal to zero wherein ΔOD is the difference between the resulting optical density (OD) with the molecule together with PMBN, and the optical density (OD) of the blank (blank is the medium) alone.
as §1, with “cultured in LB medium” for “cultured in the LB medium”, “of the above-mentioned molecules in” for “of the molecules in”
as §2, with “a Luria-Bertani” for “an Lurian-Bertani”, “above-mentioned pyrazolopyrimidine molecule” for “tested molecules”, “alone. […]” for “alone.”

[2] = test system: Pseudomonas aeruginosa (ATCC27853); experiment: Minimal Inhibitory Concentration (MIC) on Pseudomonas aeruginosa with or without PMBN
Description: A single colony grown on an tryptic soy agar plate is resuspended and cultured in tryptic soy broth medium overnight (O/N) in aerobic conditions (37° C. with 220 rpm shaking), next day a 1:100 inoculum in Mueller-Hinton broth (MHB) is incubated in aerobic conditions for 3h (OD=0.5-0.6) and an inoculum of 1:1000 dilution, corresponding to 1-3×10^5 CFU/ml, is incubated in presence or absence of different concentrations of the tested molecules in 1% DMSO (vehicle) with or without PMBN at 0.5 μg/ml. After 28-30h growth the OD of each culture was measured at 600 nm (OD600) in a spectrophotometer (Victor 3-Perkin Elmer). The MIC represents the concentration at which there is no visible growth of bacteria, i.e. ΔOD at 600 nm equal to zero (blank is the medium alone) wherein ΔOD is the difference between the resulting optical density (OD) with the molecule together with PMBN, and the optical density (OD) of the blank (blank is the medium) alone.

[3] = test system: E. coli (ATCC 8739) biofilm; experiment: Inhibition of E. coli biofilm formation (crystal violet, biofilm mass); settings: for E. coli biofilm mass expressed in percentage: replicate values
Description: 1.5×10^4 CFU of E. coli (ATCC 8739) in early logarithmic phase were added in a well of a 48-well polystyrene plate containing Luria Bertani (LB) medium supplemented with 5% mannose (purchased from Sigma-aldrich #M6020-25G) and incubated for 48h at 37° C. The incubation was carried in static conditions in presence or absence of different concentrations of the molecules 2329 or 2666 in combination or not with the penetrating agent polymyxin B nonapeptide (PMBN) (35 μg/ml) (provided by Sigma-aldrich #P2076-5MG). After incubation, planktonic bacteria, which are bacteria floating in the liquid medium, were removed and adherent bacteria were washed 2 times in PBS. Crystal Violet (Sigma-aldrich #C0775-25G) (1% solution in dH2O) was then added to the wells for 15 min at RT to stain the biofilm. Wells were washed 3 times with PBS (phosphate buffered saline provided by Lonza #17-516F) to eliminate unbound crystal violet and […] Acetic Acid 20% was added and incubated at RT for 10 min. The absorbance of the solution was measured at 570 nm with an Infinite 200 PRO (Tecan) reflecting the total biomass of the biofilm, which corresponds to the sum of live and dead bacteria. The Biofilm Mass, expressed in percentage, is calculated by the following formula: Abs(sample)/Abs(DMSO 1%)*100, wherein the Abs(sample) or Abs(DMSO) represents the difference between the absorbance of the sample or DMSO and the blank (blank is the medium alone without bacteria).

Compound	OD600 nm after O/N growth of Escherichia coli (FIG. 4) ([1]; 10 μM with 40 μg/ml PMBN)	MIC ([1]; E. coli (ATCC 8739)) [µM]	Minimal inhibitory concentration With PMBN ([1]; E. coli (ATCC 8739), together with PMBN at 40 μg/ml) [µM]	MIC ([1]; Escherichia coli, ATCC8739, E. coli (ATCC 8739)) [µM]	Activity against Escherichia coli (ATCC 8739), conclusion ([1]; with 40 μg/ml PMBN)	Minimal inhibitory concentration without PMBN ([2]; Pseudomonas aeruginosa (ATCC 27853), molecule alone) [µM]	Minimal inhibitory concentration With PMBN ([2]; Pseudomonas aeruginosa (ATCC 27853), together with PMBN at 0.5 μg/ml) [µM]	Effect on E. coli biofilm formation (FIG. 2) ([3]; 5 μM combined with 35 μg/ml PMBN)	E. coli biofilm mass expressed in percentage ([3]; 2329 20 μM without PMBN)	E. coli biofilm mass expressed in percentage ([3]; P + 2329 5 μM (PMBN 35 μg/ml))	E. coli biofilm mass expressed in percentage ([3]; P + 2329 10 μM (PMBN 35 μg/ml))	Effect on E. coli biofilm growth (FIG. 2) ([3]; molecule alone, without PMBN)	Inhibition of E. coli growth by PMBN alone ([1]; 40 μg/ml PMBN alone)	Inhibition of Pseudomonas aeruginosa growth by PMBN alone ([2]; 0.5 μg/ml PMBN alone)	Effect on E. coli biofilm growth (FIG. 2) ([3]; PMBN 35 μg/ml alone)	E. coli biofilm mass expressed in percentage ([3]; PMBN 35 μg/ml alone)
CCCSc1nc(N[C@@H]2C[C@H]2c2ccc(F)c(F)c2)c2ncn(C)c2n1 [molecule 2329, N-((1R,2S)-2-(3,4-difluorophenyl)cyclopropyl)-9-methyl-2-(propylthio)-9H-purin-6-amine]	killed all bacteria	>100	10 (≈ 3.75 µg/mL)	> 100	bactericidal activity	>100	50 (≈ 18.8 µg/mL)	fully inhibited	110.45 percentage and 124.24 percentage and 97.41 percentage and 107.12 percentage	12.79 percentage and 11.45 percentage and −1.25 percentage and −1.59 percentage	0.12 percentage and −1.01 percentage and 2.96 percentage and 3.11 percentage	no effect	–	–	–	–
Polymyxin B nonapeptide [PMBN, reference compound]	–	–	–	–	–	–	–	–	–	–	–	–	unable to inhibit; also recorded: did not inhibit	did not inhibit	reduced by half	47.94 percentage and 48.98 percentage and 53.90 percentage and 50.87 percentage

— patent US12318388B2, “Pyrimidine derivatives for prevention and treatment of gram-negative bacterial infection, contamination and fouling” (UNIVERSITÉ DE LIÈGE, priority 2019, dated 2025)
